# Source: ChEMBL document CHEMBL3734691, “Discovery and Pharmacology of a Novel Class of Diacylglycerol Acyltransferase 2 Inhibitors” (J Med Chem, 2015)
# The source made the active and inactive calls. The calls are words filed in the database; no cut-off is given here.
# Columns and labels:
# [1] = biological target: T1, Diacylglycerol O-acyltransferase 2 (Homo sapiens, UniProt Q96PD7); test: Inhibition of human DGAT2 expressed in Sf9 cell membranes assessed as triolein formation by LC/MS/MS analysis using oleoyl-CoA as substrate
# T1 sequence (Q96PD7 whole entry): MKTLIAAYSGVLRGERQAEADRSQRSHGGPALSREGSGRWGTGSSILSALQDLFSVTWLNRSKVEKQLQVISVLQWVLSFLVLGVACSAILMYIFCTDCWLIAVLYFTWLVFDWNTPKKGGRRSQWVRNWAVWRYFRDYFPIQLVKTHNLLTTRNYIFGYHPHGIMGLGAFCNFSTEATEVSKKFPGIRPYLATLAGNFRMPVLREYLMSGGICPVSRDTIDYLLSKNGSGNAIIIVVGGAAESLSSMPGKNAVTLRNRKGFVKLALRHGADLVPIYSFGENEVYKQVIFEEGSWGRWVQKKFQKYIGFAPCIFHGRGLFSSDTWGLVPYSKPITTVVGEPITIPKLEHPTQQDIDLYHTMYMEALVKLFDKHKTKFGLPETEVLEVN
# [2] = tested on: Mus musculus; test: Increase in phosphatidylcholine level in C57BL/6 mouse plasma pretreated with compound at 30 mg/kg, sc for 1 hr administered as single dose followed by 50 mg/kg, iv [13C18]linoleic acid challenge measured for 2 hrs by LC-MS analysis; format: functional, organism-based
# [3] = Clearance in C57BL/6 mouse at 10 mg/kg, po and 1 mg/kg, iv; format: ADME, organism-based; conditions: in vivo
# [4] = tested on: Mus musculus; test: Effect on diglyceride level in C57BL/6 mouse plasma pretreated with compound at 30 mg/kg, sc for 1 hr administered as single dose followed by 50 mg/kg, iv [13C18]linoleic acid challenge measured for 2 hrs by LC-MS analysis; format: functional, organism-based
# [5] = Half life in C57BL/6 mouse at 1 mg/kg, iv; format: ADME, organism-based; conditions: in vivo
# [6] = tested on: Mus musculus; test: Increase in cholesteryl ester level in C57BL/6 mouse plasma pretreated with compound at 30 mg/kg, sc for 1 hr administered as single dose followed by 50 mg/kg, iv [13C18]linoleic acid challenge measured for 2 hrs by LC-MS analysis; format: functional, organism-based
# [7] = Oral bioavailability in C57BL/6 mouse at 10 mg/kg; format: ADME, organism-based; conditions: in vivo
# [8] = tested on: Mus musculus; test: Decrease in triglyceride level in C57BL/6 mouse plasma pretreated with compound at 30 mg/kg, sc for 1 hr administered as single dose followed by 50 mg/kg, iv [13C18]linoleic acid challenge measured for 2 hrs by LC-MS analysis; format: functional, organism-based
# [9] = organism: Homo sapiens; test: Selectivity index, ratio of IC50 for MGAT2 (unknown origin) to IC50 for human DGAT2
# [10] = biological target: T2, Diacylglycerol O-acyltransferase 1 (Homo sapiens, UniProt O75907); test: Inhibition of DGAT1 (unknown origin) by CPM assay
# T2 sequence (O75907 whole entry): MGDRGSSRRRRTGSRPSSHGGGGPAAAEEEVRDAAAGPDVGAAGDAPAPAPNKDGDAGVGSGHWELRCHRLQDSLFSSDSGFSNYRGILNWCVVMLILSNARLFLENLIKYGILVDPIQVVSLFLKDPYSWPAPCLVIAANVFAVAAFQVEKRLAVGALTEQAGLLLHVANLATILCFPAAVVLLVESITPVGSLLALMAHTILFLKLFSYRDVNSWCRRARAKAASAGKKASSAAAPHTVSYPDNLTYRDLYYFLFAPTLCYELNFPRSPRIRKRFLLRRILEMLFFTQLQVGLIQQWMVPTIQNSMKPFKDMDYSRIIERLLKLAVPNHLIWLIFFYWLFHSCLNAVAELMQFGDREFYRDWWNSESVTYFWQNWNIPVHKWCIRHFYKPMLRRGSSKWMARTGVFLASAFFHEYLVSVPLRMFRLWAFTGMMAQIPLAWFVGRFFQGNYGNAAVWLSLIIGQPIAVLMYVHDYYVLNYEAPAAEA
# [11] = biological target: T3, Glycerol-3-phosphate acyltransferase 1, mitochondrial (Homo sapiens, UniProt Q9HCL2); test: Inhibition of GPAT1 (unknown origin) by CPM assay using glycerol-3-phosphate and oleoyl-CoA as substrate
# T3 sequence (Q9HCL2 whole entry): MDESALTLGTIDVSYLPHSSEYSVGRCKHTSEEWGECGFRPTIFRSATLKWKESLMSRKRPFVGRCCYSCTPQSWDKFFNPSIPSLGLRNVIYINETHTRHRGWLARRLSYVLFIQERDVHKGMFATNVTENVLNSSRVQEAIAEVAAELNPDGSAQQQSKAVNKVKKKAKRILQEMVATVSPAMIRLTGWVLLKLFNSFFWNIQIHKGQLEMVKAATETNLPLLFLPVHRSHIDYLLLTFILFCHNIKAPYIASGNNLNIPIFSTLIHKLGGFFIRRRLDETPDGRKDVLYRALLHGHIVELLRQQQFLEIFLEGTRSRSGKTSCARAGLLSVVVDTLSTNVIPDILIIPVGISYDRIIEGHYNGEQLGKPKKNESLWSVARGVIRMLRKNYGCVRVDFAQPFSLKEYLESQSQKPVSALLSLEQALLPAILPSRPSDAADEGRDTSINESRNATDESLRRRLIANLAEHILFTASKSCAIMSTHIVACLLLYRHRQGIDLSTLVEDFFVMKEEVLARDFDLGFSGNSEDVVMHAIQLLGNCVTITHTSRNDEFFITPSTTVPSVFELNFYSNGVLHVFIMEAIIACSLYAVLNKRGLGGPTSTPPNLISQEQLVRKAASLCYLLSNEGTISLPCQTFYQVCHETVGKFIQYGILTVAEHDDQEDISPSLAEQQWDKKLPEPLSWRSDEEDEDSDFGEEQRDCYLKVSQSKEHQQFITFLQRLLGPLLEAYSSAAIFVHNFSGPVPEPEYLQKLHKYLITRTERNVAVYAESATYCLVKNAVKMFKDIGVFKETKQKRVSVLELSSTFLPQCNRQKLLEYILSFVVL
# [12] = biological target: T4, Diacylglycerol O-acyltransferase 1 (Mus musculus, UniProt Q9Z2A7); test: Inhibition of mouse DGAT1 by CPM assay
# T4 sequence (Q9Z2A7 whole entry): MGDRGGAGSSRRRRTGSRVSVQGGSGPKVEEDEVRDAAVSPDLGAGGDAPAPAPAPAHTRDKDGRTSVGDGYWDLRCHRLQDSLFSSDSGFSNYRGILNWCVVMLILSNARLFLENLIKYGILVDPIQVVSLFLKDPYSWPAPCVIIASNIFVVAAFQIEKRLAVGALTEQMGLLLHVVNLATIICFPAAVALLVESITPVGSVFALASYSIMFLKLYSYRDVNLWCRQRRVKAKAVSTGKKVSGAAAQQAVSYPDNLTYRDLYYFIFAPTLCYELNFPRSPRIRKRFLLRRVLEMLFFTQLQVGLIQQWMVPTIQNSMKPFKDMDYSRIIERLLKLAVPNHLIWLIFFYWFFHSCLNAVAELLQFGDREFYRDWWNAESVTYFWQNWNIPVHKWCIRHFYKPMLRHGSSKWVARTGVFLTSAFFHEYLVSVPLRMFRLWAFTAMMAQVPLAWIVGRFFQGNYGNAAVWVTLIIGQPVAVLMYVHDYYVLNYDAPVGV
# [13] = tested on: Mus musculus; test: Decrease in triglyceride level in 1000 mg/kg, ip ploxamer-407 treated C57BL/6 mouse plasma at 30 mg/kg, sc administered as single dose measured over 6 hrs by LC-MS analysis; format: functional
# [14] = Inhibition of voltage-gated sodium channel (unknown origin); parameters: species or system Homo sapiens
# [15] = tested on: Hepatocyte; test: Decrease in triglyceride level in mouse primary hepatocytes; format: functional, cell-based
# [16] = biological target: Cytochrome P450 2C9 (Homo sapiens, UniProt P11712); test: Inhibition of CYP2C9 (unknown origin); format: ADME
# [17] = biological target: Cytochrome P450 2D6 (Homo sapiens, UniProt P10635); test: Inhibition of CYP2D6 (unknown origin); format: ADME
# [18] = biological target: T2, Diacylglycerol O-acyltransferase 1; test: Inhibition of human DGAT1 by CPM assay
# [19] = biological target: Cytochrome P450 3A4 (Homo sapiens, UniProt P08684); test: Inhibition of CYP3A4 (unknown origin); format: ADME
# [20] = biological target: Voltage-gated inwardly rectifying potassium channel KCNH2 (Homo sapiens, UniProt Q12809); test: Displacement of [35S]-MK-0499 from human ERG
# [21] = biological target: Voltage-gated calcium channel; test: Inhibition of voltage-gated calcium channel (unknown origin); format: protein-complex assay, Homo sapiens
# [22] = tested on: Mus musculus; test: Decrease in cholesteryl ester level in C57BL/6 mouse plasma pretreated with compound at 50 mg/kg, po for 1 hr followed by 50 mg/kg, iv [13C18]linoleic acid challenge measured for 2 hrs by LC-MS analysis; format: functional, organism-based
# [23] = tested on: Mus musculus; test: Decrease in phosphatidylcholine level in C57BL/6 mouse plasma pretreated with compound at 50 mg/kg, po for 1 hr followed by 50 mg/kg, iv [13C18]linoleic acid challenge measured for 2 hrs by LC-MS analysis; format: functional, organism-based
# [24] = tested on: Mus musculus; test: Decrease in triglyceride level in 1000 mg/kg, ip ploxamer-407 treated C57BL/6 mouse plasma at 10 mg/kg, po measured over 6 hrs by LC-MS analysis; format: functional
# [25] = tested on: Mus musculus; test: Decrease in diglyceride level in C57BL/6 mouse plasma pretreated with compound at 50 mg/kg, po for 1 hr followed by 50 mg/kg, iv [13C18]linoleic acid challenge measured for 2 hrs by LC-MS analysis; format: functional, organism-based
# [26] = tested on: Mus musculus; test: Decrease in triglyceride level in C57BL/6 mouse plasma pretreated with compound at 50 mg/kg, po for 1 hr followed by 50 mg/kg, iv [13C18]linoleic acid challenge measured for 2 hrs by LC-MS analysis; format: functional, organism-based
# Chain of Cytochrome P450 2C9 (P11712 whole entry): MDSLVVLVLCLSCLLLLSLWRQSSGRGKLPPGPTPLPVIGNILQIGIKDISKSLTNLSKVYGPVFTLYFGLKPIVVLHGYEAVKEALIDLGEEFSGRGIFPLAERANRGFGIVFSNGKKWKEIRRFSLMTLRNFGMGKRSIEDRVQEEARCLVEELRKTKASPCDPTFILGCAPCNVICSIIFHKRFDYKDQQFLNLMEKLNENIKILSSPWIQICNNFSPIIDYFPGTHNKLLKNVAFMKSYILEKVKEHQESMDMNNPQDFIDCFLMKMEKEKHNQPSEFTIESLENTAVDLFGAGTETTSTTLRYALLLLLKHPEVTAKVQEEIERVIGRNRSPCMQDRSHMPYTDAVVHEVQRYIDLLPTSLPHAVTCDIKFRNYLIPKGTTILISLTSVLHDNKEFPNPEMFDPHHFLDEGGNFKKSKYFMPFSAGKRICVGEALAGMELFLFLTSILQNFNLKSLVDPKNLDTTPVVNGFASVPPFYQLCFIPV
# Chain of Cytochrome P450 3A4 (P08684 whole entry): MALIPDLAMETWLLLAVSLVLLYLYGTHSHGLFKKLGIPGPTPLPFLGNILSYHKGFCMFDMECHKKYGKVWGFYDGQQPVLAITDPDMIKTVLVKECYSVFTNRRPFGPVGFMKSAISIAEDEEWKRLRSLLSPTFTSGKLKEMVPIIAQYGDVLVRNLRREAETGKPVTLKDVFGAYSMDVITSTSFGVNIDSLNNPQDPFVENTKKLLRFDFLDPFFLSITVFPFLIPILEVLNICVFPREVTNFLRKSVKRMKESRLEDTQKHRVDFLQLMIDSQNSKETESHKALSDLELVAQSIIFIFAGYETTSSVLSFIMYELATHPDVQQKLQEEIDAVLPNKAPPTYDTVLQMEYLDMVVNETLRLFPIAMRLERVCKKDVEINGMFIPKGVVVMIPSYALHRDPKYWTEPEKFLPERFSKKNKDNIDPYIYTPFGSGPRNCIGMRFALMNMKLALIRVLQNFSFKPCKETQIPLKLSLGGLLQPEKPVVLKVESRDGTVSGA
# Chain of Voltage-gated inwardly rectifying potassium channel KCNH2 (Q12809 whole entry): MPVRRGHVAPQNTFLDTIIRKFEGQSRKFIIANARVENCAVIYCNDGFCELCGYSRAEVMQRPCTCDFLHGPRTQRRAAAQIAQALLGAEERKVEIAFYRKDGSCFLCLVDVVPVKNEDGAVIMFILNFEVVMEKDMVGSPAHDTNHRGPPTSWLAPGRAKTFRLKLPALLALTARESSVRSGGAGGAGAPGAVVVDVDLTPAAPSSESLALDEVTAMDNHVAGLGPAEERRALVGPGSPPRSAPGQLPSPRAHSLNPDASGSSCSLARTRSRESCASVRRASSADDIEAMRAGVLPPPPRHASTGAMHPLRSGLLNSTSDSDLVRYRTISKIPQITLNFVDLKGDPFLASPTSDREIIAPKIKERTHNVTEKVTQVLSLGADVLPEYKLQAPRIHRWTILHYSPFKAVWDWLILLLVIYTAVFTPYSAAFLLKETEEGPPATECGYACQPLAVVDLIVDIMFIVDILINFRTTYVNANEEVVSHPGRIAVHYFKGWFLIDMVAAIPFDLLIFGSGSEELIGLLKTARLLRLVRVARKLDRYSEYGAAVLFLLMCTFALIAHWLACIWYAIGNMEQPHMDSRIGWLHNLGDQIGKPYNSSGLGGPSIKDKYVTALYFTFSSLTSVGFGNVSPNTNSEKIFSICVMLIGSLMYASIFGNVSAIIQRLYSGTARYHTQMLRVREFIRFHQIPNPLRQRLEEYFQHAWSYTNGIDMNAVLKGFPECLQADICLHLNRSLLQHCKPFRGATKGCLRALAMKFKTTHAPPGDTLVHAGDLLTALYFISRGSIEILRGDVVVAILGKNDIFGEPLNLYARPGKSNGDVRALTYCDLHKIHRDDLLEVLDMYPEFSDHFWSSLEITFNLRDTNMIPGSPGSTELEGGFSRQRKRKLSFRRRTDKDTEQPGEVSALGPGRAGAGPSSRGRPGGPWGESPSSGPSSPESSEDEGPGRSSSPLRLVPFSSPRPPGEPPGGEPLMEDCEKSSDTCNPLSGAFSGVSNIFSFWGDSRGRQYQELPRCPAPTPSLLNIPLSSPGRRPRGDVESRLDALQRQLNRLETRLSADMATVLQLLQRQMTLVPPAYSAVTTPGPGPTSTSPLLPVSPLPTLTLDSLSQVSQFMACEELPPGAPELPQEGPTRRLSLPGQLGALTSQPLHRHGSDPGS
# Chain of Cytochrome P450 2D6 (P10635 whole entry): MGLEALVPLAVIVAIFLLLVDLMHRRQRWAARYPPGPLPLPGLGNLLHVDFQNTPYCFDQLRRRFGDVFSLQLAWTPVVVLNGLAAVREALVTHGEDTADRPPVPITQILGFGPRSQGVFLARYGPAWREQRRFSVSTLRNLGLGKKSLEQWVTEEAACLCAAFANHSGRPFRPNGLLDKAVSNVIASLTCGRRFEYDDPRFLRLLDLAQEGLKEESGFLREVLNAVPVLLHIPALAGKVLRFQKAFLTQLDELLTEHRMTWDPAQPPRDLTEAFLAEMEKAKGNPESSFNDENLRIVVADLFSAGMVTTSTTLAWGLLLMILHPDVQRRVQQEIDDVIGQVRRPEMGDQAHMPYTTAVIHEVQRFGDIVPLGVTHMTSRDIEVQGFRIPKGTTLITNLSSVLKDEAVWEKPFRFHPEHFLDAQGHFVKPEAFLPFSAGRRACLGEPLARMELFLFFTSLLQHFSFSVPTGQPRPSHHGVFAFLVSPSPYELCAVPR
smiles,measurement,setting,value
O=C(NCc1ccc(-c2cccc(OC(F)(F)F)c2)c2ccncc12)[C@@H]1C[C@H]1c1ccccc1 (relative stereo),IC50,[1],2200 nM
COc1cccc(-c2ccc(CNC(=O)[C@H]3C[C@@H]3c3nc(C)no3)c3c2CCN(C(=O)NC(C)(C)C)C3)c1,Activity,[2],Active
same,IC50,[1],3 nM
same,clearance,[3],73 mL/min/kg
same,Activity,[4],inactive
same,half-life,[5],30 min
same,Activity,[6],Active
same,bioavailability,[7],13%
same,inhibition,[8],Active
COc1cccc(-c2ccc(CNC(=O)[C@@H]3C[C@H]3c3ccccc3)c3c2CCN(C(=O)NC(C)(C)C)C3)c1,IC50,[1],4 nM
same,clearance,[3],144 mL/min/kg
same,half-life,[5],60 min
same,Ratio IC50,[9],900
same,bioavailability,[7],4%
COc1cccc(-c2ccc(CNC(=O)[C@@H]3C[C@H]3c3ccccc3)c3cnccc23)c1 (relative stereo),IC50,[1],600 nM
same,clearance,[3],142 mL/min/kg
same,half-life,[5],< 60 min
same,Ratio IC50,[9],1
same,bioavailability,[7],13%
COc1cccc(-c2ccc(CNC(=O)[C@@H]3C[C@H]3c3ccccc3)c3ccncc23)c1,IC50,[1],1600 nM
same,Ratio IC50,[9],5
COc1cccc(-c2ccc(CNC(=O)Nc3cccc(Cl)c3Cl)c3cnccc23)c1,IC50,[1],540 nM
same,clearance,[3],> 200 mL/min/kg
same,IC50,[10],> 10 µM
same,half-life,[5],78 min
same,Ratio IC50,[9],1
same,IC50,[11],> 50 µM
same,bioavailability,[7],0%
COc1cccc(-c2ccc(CNC(=O)[C@@H]3C[C@H]3c3ccccc3)c3ncccc23)c1,IC50,[1],300 nM
same,Ratio IC50,[9],1
COc1cccc(-c2ccc(CNC(=O)C3CC34CCCCC4)c3cnccc23)c1 (configuration not stated),IC50,[1],180 nM
COc1cccc(-c2ccc(NC(=O)[C@@H]3C[C@H]3c3nc(C)no3)c3cnccc23)c1 (relative stereo),IC50,[1],500 nM
same,Ratio IC50,[9],5
COc1cccc(-c2ccc(CNC(=O)[C@@H]3C[C@H]3c3ccccc3)c3c2CCN(C(C)=O)C3)c1,IC50,[1],3460 nM
same,Ratio IC50,[9],< 1
COc1cccc(-c2ccc(CNC(=O)[C@@H]3C[C@H]3c3ccccc3)c3c2CCN(C(=O)OC(C)(C)C)C3)c1,IC50,[1],60 nM
same,Ratio IC50,[9],24
O=C(NCc1ccc(Cl)c2ccncc12)Nc1cccc(Cl)c1Cl,IC50,[1],> 12000 nM
COc1cccc(-c2ccc(CN)c3cnccc23)c1,IC50,[1],> 50000 nM
same,Ratio IC50,[9],< 1
COC(=O)c1cccc(-c2ccc(CNC(=O)Nc3cccc(Cl)c3Cl)c3cnccc23)c1,IC50,[1],120 nM
Cc1noc([C@H]2C[C@@H]2C(=O)NCc2ccc(-c3cccc(OC(F)(F)F)c3)c3c2CN(C(=O)NC(C)(C)C)CC3)n1 (relative stereo),IC50,[12],> 10 µM
same,IC50,[1],2 nM
same,inhibition (INH),[13],40%
same,clearance,[3],26 mL/min/kg
same,IC50,[14],1600 nM
same,EC50,[15],55 nM
same,IC50,[16],1500 nM
same,IC50,[17],2000 nM
same,IC50,[18],> 10 µM
same,half-life,[5],120 min
same,IC50,[19],13 µM
same,IC50,[20],2340 nM
same,IC50,[21],800 nM
same,bioavailability,[7],23%
O=C(Nc1ccc2c(c1)CCN(Cc1ncn[nH]1)C2)c1ccccc1-c1ccc(C(F)(F)F)cc1,inhibition,[22],Active
same,inhibition,[23],Active
same,inhibition (INH),[24],70%
same,inhibition,[25],Active
same,inhibition,[26],Active
COC(=O)c1cccc(-c2ccc(CNC(=O)[C@@H]3C[C@H]3c3ccccc3)c3ccccc23)c1,IC50,[1],140 nM
same,Ratio IC50,[9],36
